Data on ten compounds can be found in ChEMBL document CHEMBL1201862, “PubChem BioAssay data set” (2004).

Structures are written as SMILES.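 Following 48 hours of exposure in 96-well plates, responses at five concentrations were used to interpolate endpoints linearly. GI50: concentration for 50% inhibition of growth.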 Activity calls are given as the source filed them. Cut-off read from the data, not from the text of the source: active = GI50 up to about 1.1 µM and inactive = higher.

Among the test systems are 786-0; A549; CCRF-CEM; COLO 205; DU-145; EKVX; HOP-92; KM12; LOX IMVI; MDA-MB-435; NCI-H226; NCI-H23; NCI-H460; NCI-H522; OVCAR-4; OVCAR-8; SF-539; T47D; UO-31; MOLT-4.
Holding throughout (test): NCI tumour cell line growth inhibition, 48 h

In the case of `C[C@]12CCC(=O)C=C1CC[C@@H]1[C@@H]2[C@@H](O)C[C@@]2(C)[C@H]1CC[C@]2(O)C(=O)COC(=O)C1CCCC1`, the GI50 with 786-0 is > 100 µM (inactive); in the experiment on A549, 58.2 µM (inactive); in the experiment with CCRF-CEM, 7.73 µM (inactive); in the experiment with COLO 205 it was > 100 µM (inactive); in the experiment with DU-145, > 100 µM (inactive); in the experiment with EKVX it was 32.7 µM (inactive). Besides, the GI50 with HOP-92, in the experiment on KM12, in the experiment on LOX IMVI, in the experiment on MDA-MB-435, in the experiment with NCI-H226 and with NCI-H23 was > 100 µM (inactive) in each case. Moreover, the GI50 in the experiment with NCI-H460 was 87.3 µM (inactive); in the experiment with NCI-H522 it was > 100 µM (inactive); in the experiment with OVCAR-4 it was > 100 µM (inactive); in the experiment on OVCAR-8, > 100 µM (inactive); with SF-539 it was > 100 µM (inactive); in the experiment on T47D it was > 100 µM (inactive). Besides, the GI50 with UO-31 was > 100 µM (inactive).

For `Nc1nc(Cl)cc(NCC2(CO)CC(c3ccccc3)C2)n1` (stereo not given), the GI50 with 786-0 is > 100 µM (inactive); with A549, 26.2 µM (inactive); with CCRF-CEM, 27 µM (inactive); in the experiment with COLO 205 it was 29.1 µM (inactive); in the experiment with DU-145 it was > 100 µM (inactive); in the experiment on EKVX, 5.41 µM (inactive). In addition, the GI50 in the experiment with HOP-92 was 22.3 µM (inactive); with KM12 it was 39.5 µM (inactive); in the experiment with LOX IMVI, 7.16 µM (inactive); with MDA-MB-435, 29.9 µM (inactive); in the experiment on MOLT-4 it was 19.8 µM (inactive); in the experiment on NCI-H226, 37.7 µM (inactive). Besides, the GI50 with NCI-H23 is 3.57 µM (inactive); in the experiment on NCI-H460, 43.4 µM (inactive); in the experiment with NCI-H522 it was 37.9 µM (inactive); with OVCAR-4, 24.4 µM (inactive); in the experiment with OVCAR-8, 34.7 µM (inactive); in the experiment with SF-539 it was > 100 µM (inactive). Also, the figures for the GI50 in the experiment with T47D and with UO-31 were 11.4 µM (inactive) and 16.6 µM (inactive), respectively.

In the case of `S=c1c2nc[nH]c2ncn1CCSC1=NC=NC2=NC=NC21` (stereo not given), the GI50 with 786-0 is 71 µM (inactive); in the experiment with A549 it was > 100 µM (inactive); with CCRF-CEM, > 82.2 µM (inactive); with COLO 205 it was > 100 µM (inactive); in the experiment with DU-145, 78.3 µM (inactive); in the experiment with EKVX, > 100 µM (inactive). Besides, the GI50 in the experiment on HOP-92 was > 80 µM (inactive); in the experiment on KM12, 76.2 µM (inactive); in the experiment on LOX IMVI, 44.7 µM (inactive); in the experiment with MDA-MB-435 it was 53.5 µM (inactive); with MOLT-4 it was 70.5 µM (inactive); in the experiment with NCI-H226, > 100 µM (inactive). Further, the GI50 in the experiment on NCI-H23 is > 100 µM (inactive); in the experiment on NCI-H460, > 100 µM (inactive); in the experiment on NCI-H522, > 73.6 µM (inactive); in the experiment with OVCAR-4 it was > 87.3 µM (inactive); in the experiment with OVCAR-8, > 100 µM (inactive); in the experiment with SF-539, > 84.1 µM (inactive). Also, the GI50 in the experiment on T47D is > 94.2 µM (inactive); in the experiment with UO-31 it was > 100 µM (inactive).

`Fc1cccc(C2ON=C(c3ccccc3)N2C23CC4CC(CC(C4)C2)C3)c1` (stereo not given): the GI50 in the experiment on 786-0, in the experiment with A549, in the experiment on COLO 205, in the experiment with DU-145, with EKVX and with HOP-92 was > 10 µM (inactive) in each case. Besides, the GI50 in the experiment on KM12, with LOX IMVI, in the experiment with MDA-MB-435, in the experiment with MOLT-4, in the experiment with NCI-H226 and in the experiment on NCI-H23 was > 10 µM (inactive) each time. In addition, the GI50 with NCI-H460, in the experiment with NCI-H522, in the experiment with OVCAR-4, with OVCAR-8, in the experiment on SF-539 and in the experiment on T47D was > 10 µM (inactive) each time.

Take `COc1cccc(C(=O)C#Cc2cnc(OC)nc2OC)c1`: the GI50 was 1.83 µM (inactive) with 786-0; 4.82 µM (inactive) in the experiment on A549; 0.0286 µM (active) in the experiment with CCRF-CEM; 1.77 µM (inactive) in the experiment on COLO 205; 5.87 µM (inactive) in the experiment on DU-145; 1.72 µM (inactive) with EKVX. The GI50 is 2.09 µM (inactive) in the experiment on HOP-92; 3.94 µM (inactive) with KM12; 0.119 µM (active) with LOX IMVI; 1.86 µM (inactive) with MDA-MB-435; 0.155 µM (active) with MOLT-4; 1.11 µM (active) with NCI-H226. The GI50 with NCI-H23 was 1.98 µM (inactive); in the experiment with NCI-H460, 9.08 µM (inactive); in the experiment with NCI-H522, 0.226 µM (active); in the experiment with OVCAR-4 it was 2.36 µM (inactive); in the experiment on OVCAR-8, 1.7 µM (inactive); in the experiment on T47D, 1.83 µM (inactive). Also, the GI50 in the experiment with UO-31 was 1.37 µM (inactive).

Regarding `CCCCNC(=O)OCCN=C1c2ccccc2C(Br)C(Br)c2ccccc21` (stereo not given), the GI50 with 786-0 is 14.6 µM (inactive); with A549 it was 83.9 µM (inactive); with CCRF-CEM, 10.1 µM (inactive); in the experiment with COLO 205, 20.2 µM (inactive); with DU-145 it was 41.3 µM (inactive); with EKVX, 20.3 µM (inactive). In addition, the GI50 in the experiment with HOP-92 is 4.46 µM (inactive); with KM12 it was 45.6 µM (inactive); in the experiment with LOX IMVI it was 20 µM (inactive); in the experiment on MDA-MB-435, 21 µM (inactive); in the experiment with MOLT-4 it was 24.9 µM (inactive); in the experiment on NCI-H226 it was 76.9 µM (inactive). Further, the GI50 in the experiment on NCI-H23 is 26.3 µM (inactive); in the experiment on NCI-H460 it was 54.6 µM (inactive); in the experiment with NCI-H522, 22.2 µM (inactive); in the experiment with OVCAR-4, 23.8 µM (inactive); with OVCAR-8, 27.6 µM (inactive); in the experiment with SF-539, 29.9 µM (inactive). In the experiment with T47D, the GI50 was 33.8 µM (inactive).

For the compound `O=C(CCC(=O)OCC1OC(O)(CC2OC(CO)C(O)C(O)C2O)C(O)C1O)OCc1ccccc1` (stereo not given), the GI50 in the experiment on 786-0 is > 100 µM (inactive); with A549, > 100 µM (inactive); with CCRF-CEM, 67.1 µM (inactive); with COLO 205, > 100 µM (inactive); in the experiment with DU-145, > 100 µM (inactive); in the experiment with EKVX, > 100 µM (inactive). Further, the GI50 with HOP-92, in the experiment with KM12, in the experiment with LOX IMVI, in the experiment with MDA-MB-435, with NCI-H226 and with NCI-H23 was > 100 µM (inactive) in each case. Besides, the GI50 in the experiment with NCI-H460, in the experiment with NCI-H522, with OVCAR-4, with OVCAR-8, with SF-539 and in the experiment with T47D was > 100 µM (inactive) in each case. In addition, in the experiment with UO-31, the GI50 was > 100 µM (inactive).

As to `COC(=O)[C@]1(C)CCCn2c(=O)n(-c3ccccc3)c(=O)n21`, the GI50 with 786-0, in the experiment with A549, with CCRF-CEM, with COLO 205, in the experiment on DU-145 and with EKVX was > 100 µM (inactive) each time. The GI50 with HOP-92 is > 100 µM (inactive); with KM12 it was > 100 µM (inactive); in the experiment with LOX IMVI it was > 100 µM (inactive); with MDA-MB-435, > 100 µM (inactive); with MOLT-4 it was > 100 µM (inactive); in the experiment on NCI-H226, 68.1 µM (inactive). In addition, the GI50 in the experiment on NCI-H23, with NCI-H522, in the experiment with OVCAR-4, in the experiment with OVCAR-8, in the experiment on SF-539 and in the experiment with T47D was > 100 µM (inactive) throughout. The GI50 in the experiment on UO-31 was > 100 µM (inactive).

As for `Cc1ccc2nc(NC(=O)/C(Cc3nc4ccc(Cl)cc4nc3O)=N\NC(C)(C)C)sc2c1`, the GI50 in the experiment with 786-0, in the experiment on A549, in the experiment with CCRF-CEM, in the experiment with COLO 205, with DU-145 and with HOP-92 was > 100 µM (inactive) throughout. The GI50 in the experiment on KM12 was > 100 µM (inactive); in the experiment with LOX IMVI it was > 100 µM (inactive); in the experiment with MDA-MB-435, > 100 µM (inactive); with MOLT-4, > 100 µM (inactive); with NCI-H226 it was 9.59 µM (inactive); with NCI-H23, > 100 µM (inactive). Besides, the GI50 is > 100 µM (inactive) in the experiment on NCI-H460; 12.5 µM (inactive) with OVCAR-4; > 100 µM (inactive) in the experiment with OVCAR-8; > 100 µM (inactive) with SF-539; > 100 µM (inactive) in the experiment on T47D; 59.6 µM (inactive) in the experiment with UO-31.

Regarding `CCN(CC)CCNC(=O)c1cc2cc(NC(=O)c3cc4cc(NC(=O)c5cc6cc(N)ccc6[nH]5)ccc4[nH]3)ccc2[nH]1`, the GI50 in the experiment with 786-0, in the experiment on A549, in the experiment with CCRF-CEM, in the experiment on COLO 205, with DU-145 and in the experiment with EKVX was > 100 µM (inactive) each time. The GI50 with HOP-92, in the experiment with KM12, in the experiment with LOX IMVI, in the experiment on MDA-MB-435, with MOLT-4 and in the experiment with NCI-H226 was > 100 µM (inactive) throughout. Also, the GI50 in the experiment on NCI-H23, in the experiment on NCI-H460, in the experiment with NCI-H522, in the experiment with OVCAR-4, in the experiment on OVCAR-8 and in the experiment with T47D was > 100 µM (inactive) each time. In addition, the GI50 in the experiment on UO-31 is > 100 µM (inactive).
